In patent publication US6951647B2, “T cell binding ligand peptides and method of inducing a cellular immune response” (Cel-Sci Corporation, priority 2001, dated 2005):
Several values for one entry are separate records, joined by “and”; a condition that tells them apart may be missing. Equal values may be shown once.

Assays:
C Clade = assay: ELISA cross clade recognition by sera of immunized mice, C Clade; assay type: in vivo; settings: for ELISA test antigen C Clade: day 42 test bleeding
Method: (§1) Mice in groups (5-10 animals per group as designated) are immunized with the LEAPS constructs (25 μg/dose) of SEQ ID NO's:37, 38 and 39, in 0.2 mL emulsified 1:1 with adjuvant (Seppic's ISA-51 or Corixa's microfluidized MPL S/E) on days 0 and 14. Mice are evaluated by Delayed Type of Hypersensitivity (DTH) by inoculation on day 26 with 20 μl of a solution of saline or mH (SEQ ID NO:6) (25 μg in saline) in the left or right ear respectively. The DTH response is determined by measurement of the ear thickness 48 hours later and expressed as increase in ear thickness (mm) of experimental ear compared to that of the control ear. Individual animal sera are collected for measurement of antibody on day 28, 42, 63 and 77. Sera from individual animals and group pools are evaluated for specific anti-mH antibody, for total antibody, IgG1, IgG2a and IgG3 antibody isotype and cross clade titer at selected time points as indicated.
(§2) The mouse sera for the ELISA was used at a dilution of 1:200. Again, clearly, the construct provides higher signals indicative of higher levels of the antibodies that recognized other clades besides the parental one (Clade B) of mH.
(§3) A cross clade analysis for pools of day 42 test bleedings from the same groups as used in Table 3, were obtained and the results are shown in Table 4.

modified HGP-30 [1] = assay: ELISA antibody screening of sera of immunized mice on modified HGP-30; assay type: in vivo; settings: for ELISA test antigen Modified HGP-30: day 42 test bleeding
Method: as §1, with “indicated. […]” for “indicated.”

Peptide G [2] = assay: Specificity analysis for the TCBL carrier, ELISA plates coated with Peptide G; assay type: in vivo, Mice; settings: for A 490 1:200 dilution on plates coated with Peptide G: Average
Method: as §1
A specificity analysis for the TCBL or KLH carrier for pools of day 42 test bleedings from the G-mH, G′-mH and mH/KLH, using either MPL S/E or ISA51 as adjuvant, was carried out (all sera assayed at a dilution of 1:200) and the results are shown in Table 5. […] This observation is especially significant for vaccines used on a repetitive basis, such as, either a vaccine that requires more frequent intervals between boosters for maintenance of cellular reactivity or as a therapeutic vaccine.

D Clade [3] = assay: ELISA cross clade recognition by sera of immunized mice, D Clade; assay type: in vivo; settings: day 42 test bleeding, individual mouse
E Clade [4] = assay: ELISA cross clade recognition by sera of immunized mice, E Clade; assay type: in vivo; settings: day 42 test bleeding, individual mouse
D Clade [5] = assay: ELISA cross clade recognition by sera of immunized mice, D Clade; assay type: in vivo; settings: for ELISA test antigen D Clade: day 42 test bleeding, Group Average
Method: as §1, §2, §3

modified HGP-30 [6] = assay: ELISA for antibody after antisera depletion of CD4 or CD8 cells (FIG. 2); assay type: in vivo, Mice; settings: pretreatment with anti-CD4, day 28, p=0.002 (FIG. 2)
Excerpt: (§4) Select immunoglobulin preparations were obtained from Dr. Stephen Hoffmann, Malaria Program, U.S. Navy. […] This allows one to determine some parts of the nature of various cellular (e.g., T-cell) involvement in the early stage of immune system response with the LEAPS peptide-constructs. It is recognized, however, that this is only a temporary event since new cells are continuously being developed from stem cells and the animals become resistant to the reagents.
(§5) The animals are pretreated with the antisera as indicated for 5 days before the initial immunization with peptide-construct having SEQ ID NO:37 or SEQ ID NO:39 on […]. No pretreatment is done before the booster immunization on day 14 or DTH on day 26-28. The mice are then inoculated with the test antigen or saline (control) on day 26 in the left and right ears, respectively, and the DTH response is measured on day 28. The difference between the values for the test and saline control ears is calculated for each group of five animals along with the standard error of the mean (sem) and the results are plotted (see FIG. 1). Also shown in FIG. 1 are values for the untreated animals and animals immunized on day 14 only.
This example is similar to Example 2 but using a more sensitive ELISA test for antibody type. […] This was not the case, however, with pretreatment using anti-CD8 or normal rat IgG. […]

Peptide G [7] = assay: Specificity analysis for the TCBL carrier, ELISA plates coated with Peptide G; assay type: in vivo, Mice; settings: individual animal
modified HGP-30 [8] = assay: Delayed Type Hypersensitivity (DTH) ear thickness response with antisera depletion of CD4 or CD8 cells; assay type: in vivo, Mice
Method: as §1, §4, §5
The DTH (Delayed Type Hypersensitivity) data is statistically significant with a t-test of 0.05 for SEQ ID NO:39 and anti-CD8. The DTH for pretreatment of SEQ ID NO:37 immunized mice with anti-CD4 was just above the cutoff limit for statistical significance due to a weaker DTH response and small group size.

E Clade [9] = assay: ELISA cross clade recognition by sera of immunized mice, E Clade; assay type: in vivo; settings: for ELISA test antigen E Clade: day 42 test bleeding, Group Average
Method: as §1, §2, §3

[10] = day 63 test bleeding, sera 1:200, individual mouse
[11] = Day 14 Injection Only (immunized with construct on day 14 only), average of group of 5 mice
[12] = Treatment Anti CD4, daily for 5 days before immunization, average of group (5 mice)
[13] = Treatment Anti CD8, daily for 5 days before immunization, average of group of 5 mice
[14] = Treatment None, average of group (5 mice), ISA 51 adjuvant
[15] = Treatment Normal rat IgG, daily for 5 days before immunization, average of group (5 mice)

Substance: DGQ EEK AGV VST GLI GGG ATL YSV HQR IDV KDT KEA LEK IEE EQN KS (DGQEEKAGVVSTGLIGGGYLSGANLNL) [SEQ ID NO: 57, Peptide G′ linked by GGG spacer to modified HGP-30 (mH)]
- ELISA test antigen C Clade (C Clade; group (A), Group Average): 0.712
- ELISA test antigen C Clade (C Clade; group (A), individual mouse): 0.616 and 0.000 and 0.518 and 0.920 and 0.767 and 1.454
- ELISA test antigen C Clade (C Clade; group (B), Group Average): 1.559
- ELISA test antigen C Clade (C Clade; group (B), individual mouse): 2.575 and 0.837 and 1.711 and 2.254 and 0.911 and 1.070
- ELISA signal on C Clade (C Clade; [10]): 1.454 and 0.127 and 0.427 and 0.073 and 1.592 and 0.651 and 1.365 and 1.139 and 0.008 and 1.191
- A 490 1:200 dilution on plates coated with modified HGP-30 (modified HGP-30 [1]; day 42, first set of groups (animals 4637-4648, 4674-4678), individual animal): 2.178 A 490 and 1.411 A 490 and 2.314 A 490 and 2.555 A 490 and 2.404 A 490 and 2.273 A 490
- A 490 1:200 dilution on plates coated with modified HGP-30 (modified HGP-30 [1]; day 42, first set of groups, Average): 2.189 A 490
- A 490 1:200 dilution on plates coated with modified HGP-30 (modified HGP-30 [1]; day 42, second set of groups (animals 4662-4673, 4679-4683), individual animal): 1.968 A 490 and 1.422 A 490 and 1.755 A 490 and 2.450 A 490 and 2.403 A 490 and 1.399 A 490
- A 490 1:200 dilution on plates coated with modified HGP-30 (modified HGP-30 [1]; day 42, second set of groups, Average): 1.899 A 490
- ELISA test antigen Modified HGP-30 (modified HGP-30 [1]; group (A), Group Average): 2.433
- ELISA test antigen Modified HGP-30 (modified HGP-30 [1]; group (A), individual mouse): 2.307 and 1.589 and 2.432 and 2.867 and 2.627 and 2.780
- ELISA test antigen Modified HGP-30 (modified HGP-30 [1]; group (B), Group Average): 2.672
- ELISA test antigen Modified HGP-30 (modified HGP-30 [1]; group (B), individual mouse): 2.330 and 2.213 and 2.534 and 3.358 and 3.030 and 2.571
- ELISA signal on modified HGP-30 (modified HGP-30 [1]; [10]): 2.737 and 2.471 and 2.569 and 2.093 and 2.512 and 3.115 and 3.153 and 2.922 and 2.236 and 2.534
- A 490 1:200 dilution on plates coated with Peptide G (Peptide G [2]; day 42, first set of groups): 0.080 A 490
- A 490 1:200 dilution on plates coated with Peptide G (Peptide G [2]; day 42, second set of groups): 0.062 A 490
- Reactivity toward the delivery vehicle TCBL (Peptide G [2]; day 42 sera at 1:200, Table 5, in words): minimal reactivity
- ELISA test antigen D Clade (D Clade [3]; group (A)): 0.052 and 0.000 (2×) and 0.010 and 0.003 and 0.114
- ELISA test antigen D Clade (D Clade [3]; group (B)): 0.087 and 0.095 and 0.185 and 1.799 and 1.727 and 0.637
- ELISA test antigen E Clade (E Clade [4]; group (A)): 0.092 and 0.000 (3×) and 0.018 and 0.101
- ELISA test antigen E Clade (E Clade [4]; group (B)): 0.000 (2×) and 0.054 and 0.358 and 0.113 and 0.037
- ELISA test antigen D Clade (D Clade [5]; group (A)): 0.030
- ELISA test antigen D Clade (D Clade [5]; group (B)): 0.755
- ELISA signal on D Clade (D Clade [5]; [10]): 1.527 and 0.438 and 0.408 and 0.125 and 1.471 and 0.772 and 1.328 and 1.370 and 0.000 and 0.374
- Antibody detection by ELISA after antisera depletion (modified HGP-30 [6]): completely eliminated any antibodies from being detected
- A 490 1:200 dilution on plates coated with Peptide G (Peptide G [7]; day 42, first set of groups (animals 4637-4648, 4674-4678)): 0.083 A 490 and 0.054 A 490 and 0.097 A 490 and 0.038 A 490 and 0.087 A 490 and 0.121 A 490
- A 490 1:200 dilution on plates coated with Peptide G (Peptide G [7]; day 42, second set of groups (animals 4662-4673, 4679-4683)): 0.091 A 490 and 0.024 A 490 and 0.006 A 490 and 0.015 A 490 and 0.126 A 490 and 0.113 A 490
- Left Ear thickness, inoculated day 26 with HGP-30, measured after 48 hours (modified HGP-30 [8]; [11]): 0.234 mm
- Right Ear thickness, inoculated day 26 with saline, measured after 48 hours (modified HGP-30 [8]; [11]): 0.222 mm
- DTH % increase (L-R)/R (modified HGP-30 [8]; Day 14 Injection Only, average of group of 5 mice): 5.10%
- Left Ear thickness, inoculated day 26 with HGP-30, measured after 48 hours (modified HGP-30 [8]; [12]): 0.252 mm
- Right Ear thickness, inoculated day 26 with saline, measured after 48 hours (modified HGP-30 [8]; [12]): 0.237 mm
- DTH % increase (L-R)/R (modified HGP-30 [8]; Treatment Anti CD4, average of group (5 mice)): 6.10%
- Left Ear thickness, inoculated day 26 with HGP-30, measured after 48 hours (modified HGP-30 [8]; [13]): 0.290 mm
- Right Ear thickness, inoculated day 26 with saline, measured after 48 hours (modified HGP-30 [8]; [13]): 0.232 mm
- DTH % increase (L-R)/R (modified HGP-30 [8]; Treatment Anti CD8, average of group of 5 mice): 25.00%
- DTH % increase (L-R)/R (modified HGP-30 [8]; Treatment None, average of group (5 mice)): 22.10%
- Left Ear thickness, inoculated day 26 with HGP-30, measured after 48 hours (modified HGP-30 [8]; [14]): 0.274 mm
- Right Ear thickness, inoculated day 26 with saline, measured after 48 hours (modified HGP-30 [8]; [14]): 0.224 mm
- Left Ear thickness, inoculated day 26 with HGP-30, measured after 48 hours (modified HGP-30 [8]; [15]): 0.278 mm
- Right Ear thickness, inoculated day 26 with saline, measured after 48 hours (modified HGP-30 [8]; [15]): 0.232 mm
- DTH % increase (L-R)/R (modified HGP-30 [8]; Treatment Normal rat IgG, average of group (5 mice)): 19.90%
- Type of cells required for a DTH response (modified HGP-30 [8]; cell specific antisera as depletion reagent for the primary immunization (FIG. 1)): requires the presence and presumably activation of CD4+ but not CD8+ cells
- ELISA test antigen E Clade (E Clade [9]; group (A)): 0.035
- ELISA test antigen E Clade (E Clade [9]; group (B)): 0.094
- ELISA signal on E Clade (E Clade [9]; [10]): 0.933 and 0.030 and 0.113 and 0.041 and 0.000 (2×) and 0.029 and 0.068 and 0.006 and 0.271
